From patent publication US12509444B2, “Compounds and methods for CD73 modulation and indications therefor” (Plexxikon Inc., priority 2019, dated 2025) come the findings set out here.

For assay [1], the target named is T1, human CD73 (Homo sapiens, UniProt P21589).
T1 construct: expressed in transfected cells
T1 sequence (P21589 27-549): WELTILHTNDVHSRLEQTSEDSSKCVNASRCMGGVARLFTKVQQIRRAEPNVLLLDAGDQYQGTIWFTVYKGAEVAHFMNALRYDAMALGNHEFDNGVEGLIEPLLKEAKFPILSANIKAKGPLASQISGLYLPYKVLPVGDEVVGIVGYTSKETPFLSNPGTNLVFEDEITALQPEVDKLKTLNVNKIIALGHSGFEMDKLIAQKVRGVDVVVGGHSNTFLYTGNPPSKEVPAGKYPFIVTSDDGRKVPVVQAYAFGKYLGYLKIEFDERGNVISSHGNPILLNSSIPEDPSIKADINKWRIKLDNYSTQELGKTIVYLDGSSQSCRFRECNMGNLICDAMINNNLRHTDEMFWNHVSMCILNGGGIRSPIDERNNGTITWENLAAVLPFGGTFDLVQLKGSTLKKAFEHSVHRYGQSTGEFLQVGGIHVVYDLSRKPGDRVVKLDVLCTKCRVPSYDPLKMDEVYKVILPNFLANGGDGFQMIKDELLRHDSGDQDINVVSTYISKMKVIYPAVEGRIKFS
Put plainly: Inhibitor activity against CD73 in cell based assay (CD73 expressing CHO-K1 cells). The note with it: CHO-K1 cells expressing human CD73, 150 μM AMP, 4 hours of incubation; read-out: CHO-K1 CELL VARIANT: CD73 IC50. An outline of the steps: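 Stably transfected CHO-K1 cells expressing human CD73 (1×10^4/well) incubated 4 h with compound (8-point 1:3 titration, top 10 μM final, 0.2% DMSO) and 150 μM AMP. Residual AMP in supernatant measured by CellTiter-Glo luminescence with 1 μM ATP after 30 min at room temperature; IC50 by nonlinear regression of percent inhibition vs high/low controls.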

The target in assay [2] is T2, Human CD73 (amino acid residues 27-549) (Homo sapiens, UniProt P21589).
T2 construct: Human CD73 (amino acid residues 27-549); His tag (N); made in house; host or cells: E. coli
T2 sequence (P21589 27-549): T1 sequence (P21589 27-549)
Kind of assay: CD73 enzymatic assay (luciferase-based indirect assay, CellTiter-Glo). The format is biochemical. The note with it: 0.4 nM CD73, 150 μM AMP, 1 hour at room temperature. In a few lines:
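His-tagged human CD73 (27-549) from E. coli, 0.4 nM, with 150 μM AMP in 50 mM HEPES pH 7.4, 0.01% Tween 20; 1 h at room temperature. AMP remaining read by CellTiter-Glo 2.0 luminescence with 1 μM final ATP after 30 min. IC50 from nonlinear regression of % inhibition.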

The structures appear in SMILES notation.

With `CC1(S(=O)(=O)N[C@H]2CC[C@H](NC(=O)O[C@@H]3CCN(c4cn[nH]c(=O)c4Cl)C3)CC2)CC1` [P-0313, (R)-1-(5-chloro-6-oxo-1,6-dihydropyridazin-4-yl)pyrrolidin-3-yl ((1r,4R)-4-((1-methylcyclopropane)-1-sulfonamido)cyclohexyl) carbamate], the IC50 in assay [1] and in assay [2] was 0.001 to 10 µM in each case.
For `O=C(N[C@H]1CC[C@H](NC(=O)c2ccccc2F)CC1)O[C@@H]1CCN(c2cn[nH]c(=O)c2Cl)C1` [P-0314, (R)-1-(5-chloro-6-oxo-1,6-dihydropyridazin-4-yl)pyrrolidin-3-yl ((1r,4R)-4-(2-fluorobenzamido)cyclohexyl) carbamate], the IC50 in assay [1] and in assay [2] was 0.001 to 10 µM throughout.
For `O=C(N[C@H]1CC[C@H](NC(=O)c2cccc(F)c2)CC1)O[C@@H]1CCN(c2cn[nH]c(=O)c2Cl)C1` [P-0315, (R)-1-(5-chloro-6-oxo-1,6-dihydropyridazin-4-yl)pyrrolidin-3-yl ((1r,4R)-4-(3-fluorobenzamido)cyclohexyl) carbamate], the IC50 in assay [1] and in assay [2] was 0.001 to 10 µM throughout.
On to `Cc1ccccc1C(=O)N[C@H]1CC[C@H](NC(=O)O[C@@H]2CCN(c3cn[nH]c(=O)c3Cl)C2)CC1` [P-0316, (R)-1-(5-chloro-6-oxo-1,6-dihydropyridazin-4-yl)pyrrolidin-3-yl ((1r,4R)-4-(2-methylbenzamido)cyclohexyl) carbamate], for which the IC50 in assay [1] and in assay [2] was 0.001 to 10 µM in each case.
As for `Cc1cccc(C(=O)N[C@H]2CC[C@H](NC(=O)O[C@@H]3CCN(c4cn[nH]c(=O)c4Cl)C3)CC2)c1` [P-0317, (R)-1-(5-chloro-6-oxo-1,6-dihydropyridazin-4-yl)pyrrolidin-3-yl ((1r,4R)-4-(3-methylbenzamido)cyclohexyl) carbamate], the IC50 in assay [1] and in assay [2] was 0.001 to 10 µM in each case.
Turning to `O=C(N[C@H]1CC[C@H](NC(=O)c2ccc(C(F)(F)F)nc2)CC1)O[C@@H]1CCN(c2cn[nH]c(=O)c2Cl)C1` [P-0318, (R)-1-(5-chloro-6-oxo-1,6-dihydropyridazin-4-yl)pyrrolidin-3-yl ((1r,4R)-4-(6-(trifluoromethyl)nicotinamido)cyclohexyl)carbamate], the IC50 in assay [1] and in assay [2] was 0.001 to 10 µM each time.
Regarding `CNC(=O)N[C@H]1CC[C@H](NC(=O)O[C@@H]2CCN(c3cn[nH]c(=O)c3Cl)C2)CC1` [P-0319, (R)-1-(5-chloro-6-oxo-1,6-dihydropyridazin-4-yl)pyrrolidin-3-yl ((1r,4R)-4-(3-methylureido)cyclohexyl) carbamate], the IC50 in assay [1] and in assay [2] was 0.001 to 10 µM in each case.
On to `CC(C)NC(=O)N[C@H]1CC[C@H](NC(=O)O[C@@H]2CCN(c3cn[nH]c(=O)c3Cl)C2)CC1` [P-0320, (R)-1-(5-chloro-6-oxo-1,6-dihydropyridazin-4-yl)pyrrolidin-3-yl ((1r,4R)-4-(3-isopropylureido)cyclohexyl) carbamate], for which the IC50 in assay [1] and in assay [2] was 0.001 to 10 µM each time.
Turning to `Cc1ccc(NC(=O)N[C@H]2CC[C@H](NC(=O)O[C@@H]3CCN(c4cn[nH]c(=O)c4Cl)C3)CC2)cc1` [P-0321, (R)-1-(5-chloro-6-oxo-1,6-dihydropyridazin-4-yl)pyrrolidin-3-yl ((1r,4R)-4-(3-(p-tolyl)ureido)cyclohexyl) carbamate], the IC50 in assay [1] and in assay [2] was 0.001 to 10 µM each time.
Regarding `N#Cc1ccc(NC(=O)N[C@H]2CC[C@H](NC(=O)O[C@@H]3CCN(c4cn[nH]c(=O)c4Cl)C3)CC2)cc1` [P-0322, (R)-1-(5-chloro-6-oxo-1,6-dihydropyridazin-4-yl)pyrrolidin-3-yl ((1r,4R)-4-(3-(4-cyanophenyl)ureido)cyclohexyl)carbamate], the IC50 in assay [1] and in assay [2] was 0.001 to 10 µM each time.
Regarding `O=C(Nc1ccc(F)cc1F)N[C@H]1CC[C@H](NC(=O)O[C@@H]2CCN(c3cn[nH]c(=O)c3Cl)C2)CC1` [P-0323, (R)-1-(5-chloro-6-oxo-1,6-dihydropyridazin-4-yl)pyrrolidin-3-yl ((1r,4R)-4-(3-(2,4-difluorophenyl)ureido)cyclohexyl)carbamate], the IC50 in assay [1] and in assay [2] was 0.001 to 10 µM in each case.
As for `O=C(NCC(F)(F)F)N[C@H]1CC[C@H](NC(=O)O[C@@H]2CCN(c3cn[nH]c(=O)c3Cl)C2)CC1` [P-0324, (R)-1-(5-chloro-6-oxo-1,6-dihydropyridazin-4-yl)pyrrolidin-3-yl ((1r,4R)-4-(3-(2,2,2-trifluoroethyl)ureido)cyclohexyl)carbamate], the IC50 in assay [1] and in assay [2] was 0.001 to 10 µM in each case.
As for `COC(=O)N[C@H]1CC[C@H](NC(=O)O[C@@H]2CCN(c3cn[nH]c(=O)c3Cl)C2)CC1` [P-0325, (R)-1-(5-chloro-6-oxo-1,6-dihydropyridazin-4-yl)pyrrolidin-3-yl methyl ((1R,4r)-cyclohexane-1,4-diyl)dicarbamate], the IC50 in assay [1] and in assay [2] was 0.001 to 10 µM each time.
For `O=C(NC1CC1)N[C@H]1CC[C@@H](NC(=O)O[C@@H]2CCN(c3cn[nH]c(=O)c3Cl)C2)CC1` [P-0326, (R)-1-(5-chloro-6-oxo-1,6-dihydropyridazin-4-yl)pyrrolidin-3-yl ((1s,4S)-4-(3-cyclopropylureido)cyclohexyl) carbamate], the IC50 in assay [1] and in assay [2] was 0.001 to 10 µM throughout.
For `CC(C)(C)C(=O)N[C@H]1CC[C@@H](NC(=O)O[C@@H]2CCN(c3cn[nH]c(=O)c3Cl)C2)CC1` [P-0327, (R)-1-(5-chloro-6-oxo-1,6-dihydropyridazin-4-yl)pyrrolidin-3-yl ((1s,4S)-4-pivalamidocyclohexyl) carbamate], the IC50 in assay [1] and in assay [2] was 0.001 to 10 µM in each case.
For the compound `O=C(NC1CCC2(CC1)CS(=O)(=O)C2)O[C@@H]1CCN(c2cn[nH]c(=O)c2Cl)C1` [P-0328, (R)-1-(5-chloro-6-oxo-1,6-dihydropyridazin-4-yl)pyrrolidin-3-yl (2,2-dioxido-2-thiaspiro[3.5]nonan-7-yl)carbamate], the IC50 in assay [1] and in assay [2] was 0.001 to 10 µM in each case.
Take `O=C(N[C@H]1CC[C@@H](NC2CCCCC2)CC1)O[C@@H]1CCN(c2cn[nH]c(=O)c2Cl)C1` [P-0329, (R)-1-(5-chloro-6-oxo-1,6-dihydropyridazin-4-yl)pyrrolidin-3-yl ((1s,4S)-4-(cyclohexylamino)cyclohexyl) carbamate]: the IC50 in assay [1] and in assay [2] was 0.001 to 10 µM each time.
As for `O=C(N[C@H]1CC[C@@H](Nc2cc(F)ccn2)CC1)O[C@@H]1CCN(c2cn[nH]c(=O)c2Cl)C1` [P-0330, (R)-1-(5-chloro-6-oxo-1,6-dihydropyridazin-4-yl)pyrrolidin-3-yl ((1s,4S)-4-((4-fluoropyridin-2-yl)amino)cyclohexyl)carbamate], the IC50 in assay [1] and in assay [2] was 0.001 to 10 µM in each case.
Regarding `CC(C)(O)Cn1ncc(N2CC[C@@H](OC(=O)NC3CCC(F)(F)CC3)C2)c(Cl)c1=O` [P-0331, (R)-1-(5-chloro-1-(2-hydroxy-2-methylpropyl)-6-oxo-1,6-dihydropyridazin-4-yl)pyrrolidin-3-yl (4,4-difluorocyclohexyl)carbamate], the IC50 in assay [1] was in the range of 10 to 100 µM; in assay [2], 0.001 to 10 µM.
In the case of `O=C(NC1CCC(F)(F)CC1)O[C@@H]1CCN(c2cnn(CCCO)c(=O)c2Cl)C1` [P-0332, (R)-1-(5-chloro-1-(3-hydroxypropyl)-6-oxo-1,6-dihydropyridazin-4-yl)pyrrolidin-3-yl (4,4-difluorocyclohexyl)carbamate], the IC50 in assay [1] and in assay [2] was 0.001 to 10 µM in each case.
Turning to `O=C(NC1CCN(C(=O)CO)CC1(F)F)O[C@@H]1CCN(c2cn[nH]c(=O)c2Cl)C1` (stereo partly drawn) [P-0333, (R)-1-(5-chloro-6-oxo-1,6-dihydropyridazin-4-yl)pyrrolidin-3-yl (3,3-difluoro-1-(2-hydroxyacetyl)piperidin-4-yl)carbamate], the IC50 in assay [1] and in assay [2] was 0.001 to 10 µM throughout.
Take `CS(=O)(=O)N[C@H]1CC[C@H](NC(=O)O[C@@H]2CCN(c3cnn(CCO)c(=O)c3Cl)C2)CC1` [P-0334, (R)-1-(5-chloro-1-(2-hydroxyethyl)-6-oxo-1,6-dihydropyridazin-4-yl)pyrrolidin-3-yl ((1r,4R)-4-(methylsulfonamido)cyclohexyl)carbamate]: the IC50 in assay [1] and in assay [2] was 0.001 to 10 µM throughout.
Turning to `C[C@@H]1CCCC[C@H]1NC(=O)O[C@@H]1CCN(c2cn[nH]c(=O)c2Cl)C1` [P-0335, (R)-1-(5-chloro-6-oxo-1,6-dihydropyridazin-4-yl)pyrrolidin-3-yl ((1R,2R)-2-methylcyclohexyl)carbamate], the IC50 in assay [1] and in assay [2] was 0.001 to 10 µM in each case.
